This passage reports IC50 results from patent US12030878B2 (BRISTOL-MYERS SQUIBB COMPANY, priority 2017, dated 2024).

What all share (assay type): cell-based
One assay has as its target T1, human TLR7 (Homo sapiens, UniProt Q9NYK1).
T1 construct: host or cells: HEK-Blue cells
T1 sequence (Q9NYK1 27-1049): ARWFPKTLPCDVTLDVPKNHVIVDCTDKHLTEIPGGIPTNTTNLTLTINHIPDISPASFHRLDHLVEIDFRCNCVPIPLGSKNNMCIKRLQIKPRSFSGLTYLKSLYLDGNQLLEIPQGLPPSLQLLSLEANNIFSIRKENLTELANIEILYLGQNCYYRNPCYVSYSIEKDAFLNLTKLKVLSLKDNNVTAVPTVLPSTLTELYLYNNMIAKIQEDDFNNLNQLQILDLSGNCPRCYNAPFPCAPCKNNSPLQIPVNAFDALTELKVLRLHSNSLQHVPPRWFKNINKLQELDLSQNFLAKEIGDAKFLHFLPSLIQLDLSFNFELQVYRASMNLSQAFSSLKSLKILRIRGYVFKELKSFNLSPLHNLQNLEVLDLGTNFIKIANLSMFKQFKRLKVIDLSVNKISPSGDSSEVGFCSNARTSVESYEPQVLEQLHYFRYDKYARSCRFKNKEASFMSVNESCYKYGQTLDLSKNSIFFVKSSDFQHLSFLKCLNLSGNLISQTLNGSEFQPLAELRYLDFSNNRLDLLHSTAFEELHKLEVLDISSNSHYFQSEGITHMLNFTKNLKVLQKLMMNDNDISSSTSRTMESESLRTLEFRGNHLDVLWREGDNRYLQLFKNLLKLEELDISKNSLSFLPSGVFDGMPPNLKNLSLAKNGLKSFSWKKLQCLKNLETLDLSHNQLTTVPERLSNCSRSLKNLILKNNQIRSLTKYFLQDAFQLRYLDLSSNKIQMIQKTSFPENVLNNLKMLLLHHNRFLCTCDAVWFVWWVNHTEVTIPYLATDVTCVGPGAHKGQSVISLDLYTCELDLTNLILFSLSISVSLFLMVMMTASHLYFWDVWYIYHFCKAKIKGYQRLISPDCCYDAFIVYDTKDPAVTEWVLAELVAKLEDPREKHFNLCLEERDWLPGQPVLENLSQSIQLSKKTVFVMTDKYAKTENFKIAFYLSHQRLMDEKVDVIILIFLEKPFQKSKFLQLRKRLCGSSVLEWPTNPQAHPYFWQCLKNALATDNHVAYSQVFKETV
The assay can be described thus: TLR7 inhibition reporter assay (HEK-Blue SEAP). The settings on record: HEK-Blue cells overexpressing human TLR7, stimulated with gardiquimod 7.5 μM, 22 hour incubation. As to the method:
(§1) TLR7/8/9 Inhibition Reporter Assays
(§2) HEK-Blue™-cells (Invivogen) overexpressing human TLR7, TLR8 or TLR9 receptors were used for screening inhibitors of these receptors using an inducible SEAP (secreted embryonic alkaline phosphatase) reporter gene under the control of the IFN-β minimal promoter fused to five NF-κB and AP-1-binding sites. Briefly, cells are seeded into Greiner 384 well plates (15000 cells per well for TLR7, 20.000 for TLR8 and 25,000 for TLR9) and then treated with test compounds in DMSO to yield a final dose response concentration range of 0.05 nM-50 μM. After a 30 minute compound pre-treatment at room temperature, the cells are then stimulated with a TLR7 ligand (gardiquimod at a final concentration of 7.5 μM), TLR8 ligand (R848 at a final concentration of 15.9 μM) or TLR9 ligand (ODN2006 at a final concentration of 5 nM) to activate NF-κB and AP-1 which induce the production of SEAP. After a 22 hour incubation at 37° C., 5% CO2, SEAP levels are determined with the addition of HEK-Blue™ Detection reagent (Invivogen), a cell culture medium that allows for detection of SEAP, according to manufacturer's specifications. The percent inhibition is determined as the % reduction in the HEK-Blue signal present in wells treated with agonist plus DMSO alone compared to wells treated with a known inhibitor.

Another assay concerns the target T2, human TLR8 (Homo sapiens, UniProt Q9NR97).
T2 construct: host or cells: HEK-Blue cells
T2 sequence (Q9NR97 27-1041): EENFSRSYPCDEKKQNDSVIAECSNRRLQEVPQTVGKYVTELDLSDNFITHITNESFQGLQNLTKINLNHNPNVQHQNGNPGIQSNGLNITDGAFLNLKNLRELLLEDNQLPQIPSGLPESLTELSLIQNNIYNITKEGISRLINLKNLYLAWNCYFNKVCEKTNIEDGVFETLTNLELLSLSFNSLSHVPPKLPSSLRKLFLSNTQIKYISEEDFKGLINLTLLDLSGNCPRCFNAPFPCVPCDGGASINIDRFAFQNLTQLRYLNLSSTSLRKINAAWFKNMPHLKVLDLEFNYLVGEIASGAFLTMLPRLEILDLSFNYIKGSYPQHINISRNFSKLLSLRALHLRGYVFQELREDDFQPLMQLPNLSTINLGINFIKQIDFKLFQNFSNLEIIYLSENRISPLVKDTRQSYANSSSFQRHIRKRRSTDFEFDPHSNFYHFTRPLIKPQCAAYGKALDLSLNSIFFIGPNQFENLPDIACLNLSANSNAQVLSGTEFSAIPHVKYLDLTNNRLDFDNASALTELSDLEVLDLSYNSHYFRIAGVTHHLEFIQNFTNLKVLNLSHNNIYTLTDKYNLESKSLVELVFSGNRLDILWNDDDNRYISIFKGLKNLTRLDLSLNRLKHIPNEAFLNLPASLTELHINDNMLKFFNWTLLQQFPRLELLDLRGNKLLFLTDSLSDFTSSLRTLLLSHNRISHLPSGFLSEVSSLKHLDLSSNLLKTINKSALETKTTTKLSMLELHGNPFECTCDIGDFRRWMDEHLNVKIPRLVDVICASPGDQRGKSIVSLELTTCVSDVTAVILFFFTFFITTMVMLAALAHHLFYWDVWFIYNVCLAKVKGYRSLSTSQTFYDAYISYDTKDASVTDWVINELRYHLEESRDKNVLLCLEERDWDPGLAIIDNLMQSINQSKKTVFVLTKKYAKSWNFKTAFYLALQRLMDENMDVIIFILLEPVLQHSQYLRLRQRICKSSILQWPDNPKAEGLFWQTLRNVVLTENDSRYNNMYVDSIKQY
The assay can be described thus: TLR8 inhibition reporter assay (HEK-Blue SEAP). Conditions: HEK-Blue cells overexpressing human TLR8, stimulated with R848 15.9 μM, 22 hour incubation. How it is done: as §1, §2

The target in a further assay is T3, human TLR9 (Homo sapiens, UniProt Q9NR96).
T3 construct: host or cells: HEK-Blue cells
T3 sequence (Q9NR96 26-1032): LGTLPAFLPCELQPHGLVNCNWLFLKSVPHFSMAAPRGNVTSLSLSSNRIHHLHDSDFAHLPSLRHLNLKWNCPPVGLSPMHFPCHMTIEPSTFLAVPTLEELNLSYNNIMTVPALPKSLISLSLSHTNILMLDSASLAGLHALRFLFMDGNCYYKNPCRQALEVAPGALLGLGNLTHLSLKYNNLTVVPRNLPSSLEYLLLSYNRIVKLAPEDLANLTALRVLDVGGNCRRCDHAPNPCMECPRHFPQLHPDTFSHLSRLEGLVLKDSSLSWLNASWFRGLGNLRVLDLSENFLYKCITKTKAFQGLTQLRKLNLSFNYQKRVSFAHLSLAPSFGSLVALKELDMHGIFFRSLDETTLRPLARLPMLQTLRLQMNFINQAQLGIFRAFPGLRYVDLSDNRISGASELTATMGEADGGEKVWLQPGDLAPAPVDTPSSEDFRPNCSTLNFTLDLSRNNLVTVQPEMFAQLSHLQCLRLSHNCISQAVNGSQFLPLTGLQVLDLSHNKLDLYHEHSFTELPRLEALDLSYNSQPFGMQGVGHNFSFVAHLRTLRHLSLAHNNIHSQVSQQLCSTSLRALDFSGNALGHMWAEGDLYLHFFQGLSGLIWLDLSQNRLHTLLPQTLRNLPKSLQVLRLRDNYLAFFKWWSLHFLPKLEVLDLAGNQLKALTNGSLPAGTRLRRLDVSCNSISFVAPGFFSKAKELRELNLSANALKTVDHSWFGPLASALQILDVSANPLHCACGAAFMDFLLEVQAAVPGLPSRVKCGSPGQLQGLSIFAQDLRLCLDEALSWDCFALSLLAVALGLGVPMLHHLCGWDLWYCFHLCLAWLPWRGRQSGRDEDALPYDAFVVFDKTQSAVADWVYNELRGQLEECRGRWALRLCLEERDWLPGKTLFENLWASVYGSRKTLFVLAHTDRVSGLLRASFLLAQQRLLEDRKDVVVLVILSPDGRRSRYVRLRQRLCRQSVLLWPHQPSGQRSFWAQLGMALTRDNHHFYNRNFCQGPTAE
The assay is described as follows: TLR9 inhibition reporter assay (HEK-Blue SEAP). The settings on record: HEK-Blue cells overexpressing human TLR9, stimulated with ODN2006 5 nM, 22 hour incubation. How it is done: as §1, §2

With `Cc1cc(-c2[nH]c3ccc(O[C@H]4CCCNC4)cc3c2C(C)C)cn2ncnc12` [Example 9, (S)-6-(3-isopropyl-5-(piperidin-3-yloxy)-1H-indol-2-yl)-8-methyl-[1,2,4]triazolo[1,5-a]pyridine], the IC50 was determined as 0.8 nM at human TLR7, 10.6 nM against human TLR8 and 2270 nM against human TLR9.
On the same counts, the results for `Cc1cc(-c2[nH]c3ccc(OC4CCNCC4)cc3c2C(C)C)cn2ncnc12` [Example 10, 6-(3-isopropyl-5-(piperidin-4-yloxy)-1H-indol-2-yl)-8-methyl-[1,2,4]triazolo[1,5-a] pyridine] are 0.6 nM, 1.6 nM and 653 nM.
For `Cc1cc(-c2[nH]c3ccc(OC4CCNCC4)cc3c2C(C)C)cn(C)c1=O` [Example 11, 5-(3-isopropyl-5-(piperidin-4-yloxy)-1H-indol-2-yl)-1,3-dimethylpyridin-2(1H)-one] the same measures were 2.8 nM, 2.1 nM and 1920 nM.
As for `Cc1cc(-c2[nH]c3ccc(OCC4CCNCC4)cc3c2C(C)C)cn2ncnc12` [Example 12, 6-(3-isopropyl-5-(piperidin-4-ylmethoxy)-1H-indol-2-yl)-8-methyl-[1,2,4] triazolo[1,5-a]pyridine], the results for the IC50 at human TLR7, at human TLR8 and at human TLR9 were 0.3 nM, 3 nM and 1100 nM, respectively.
On the same counts, the results for `Cc1cc(-c2[nH]c3ccc(OC4CCN(CC(C)(C)O)CC4)cc3c2C(C)C)cc(C)n1` [Example 21, 1-(4-((2-(2,6-dimethylpyridin-4-yl)-3-isopropyl-1H-indol-5-yl)oxy)piperidin-1-yl)-2-methylpropan-2-ol] are 3.6 nM, 1.1 nM and 518 nM.
On to `Cc1cc(-c2[nH]c3ccc(OC4CCN(CC(C)(C)O)CC4)cc3c2C(C)C)cn2ncnc12` [Example 22, 1-(4-((3-isopropyl-2-(8-methyl-[1,2,4]triazolo[1,5-a]pyridin-6-yl)-1H-indol-5-yl)oxy)piperidin-1-yl)-2-methylpropan-2-ol], for which the concentration for half-maximal inhibition (IC50) stood at 6.3 nM at human TLR7, 9.2 nM against human TLR8 and 4410 nM against human TLR9.
For `Cc1cc(-c2[nH]c3ccc(OCC4CCCN(CC(C)(C)O)C4)cc3c2C(C)C)cc(C)n1` (stereo not drawn) [Example 23, 1-(3-(((2-(2,6-dimethylpyridin-4-yl)-3-isopropyl-1H-indol-5-yl)oxy)methyl)piperidin-1-yl)-2-methylpropan-2-ol] the same measures were 9.6 nM, 4.4 nM and 557 nM.
Take `Cc1cc(-c2[nH]c3ccc(OCC4CCN(CC(C)(C)O)CC4)cc3c2C(C)C)cc(C)n1` [Example 24, 1-(4-(((2-(2,6-dimethylpyridin-4-yl)-3-isopropyl-1H-indol-5-yl)oxy)methyl)piperidin-1-yl)-2-methylpropan-2-ol]: the values for the IC50 on human TLR7, on human TLR8 and against human TLR9 were 4.3 nM, 3 nM and 300 nM, respectively.
For `Cc1cc(-c2[nH]c3ccc(OCC4CCN(CC(C)(C)O)CC4)cc3c2C(C)C)cn(C)c1=O` [Example 25, 5-(5-((1-(2-hydroxy-2-methylpropyl)piperidin-4-yl)methoxy)-3-isopropyl-1H-indol-2-yl)-1,3-dimethylpyridin-2(1H)-one] the same measures were 115 nM, 14 nM and 11500 nM.
On the same counts, the results for `Cc1cc(-c2[nH]c3ccc(OCC4CN(CC(C)(C)O)C4)cc3c2C(C)C)cn2ncnc12` [Example 26, 1-(3-(((3-isopropyl-2-(8-methyl-[1,2,4]triazolo[1,5-a]pyridin-6-yl)-1H-indol-5-yl)oxy)methyl)azetidin-1-yl)-2-methylpropan-2-ol] are 1.1 nM, 3.5 nM and 3160 nM.
Take `Cc1cc(-c2[nH]c3ccc(OCC4CCN(CC(C)(C)O)CC4)cc3c2C(C)C)cn2ncnc12` [Example 27, 1-(4-(((3-isopropyl-2-(8-methyl-[1,2,4]triazolo[1,5-a]pyridin-6-yl)-1H-indol-5-yl)oxy)methyl)piperidin-1-yl)-2-methylpropan-2-ol]: the concentration for half-maximal inhibition (IC50) is 0.5 nM on human TLR7, 1.7 nM at human TLR8 and 1750 nM on human TLR9.
